# In patent US20060069132A1, “Azolecarboxamide herbicides” (priority 2004, published 2006):
# Tests used:
# pigweed = experiment: Test F pre-/postemergence herbicide test; format: in vivo, Amaranthus retroflexus
# Description: (§1) Seeds of plant species selected from annual blugrass (Poa annua L.), blackgrass (Alopecurus myosuroides Huds.), catchweed bedstraw (Gallium aparine L.), common chickweed (Stellaria media (L.) Vill./Cyr.), downy bromegrass (Bromus tectorum L.), green foxtail (Setaria viridis (L.) Beauv.), Italian ryegrass (Lolium multiflorum Lam.), kochia (Kochia scoparia (L.). Schrad.), lambsquarters (Chenopodium album L.), littleseed canarygrass (Phalaris minor Retz.), pigweed (Amaranthus retroflexus L.), Russian thistle (Salsola kali L. ssp. Ruthenica (Iljin) Soo), wild buckwheat (Polygonum convolvulus L.), wild mustard (Sinapis arvensis L.), wild oat (Avena fatua L.), windgrass (Apera spica-venti (L.) Beauv.), winter barley (Hordeum vulgare L.), and wheat (Triticum aestivum L.) were planted and treated preemergence with test chemicals formulated in a non-phytotoxic solvent mixture which included a surfactant.
# (§2) At the same time, plants selected from these crop and weed species were treated with postemergence applications of some of the test chemicals formulated in the same manner. Plants ranged in height from 2 to 18 cm (1- to 4-leaf stage) for postemergence treatments. Treated plants and controls were maintained in a greenhouse for 12 to 14 days, after which time all species were compared to controls and visually evaluated. Plant response ratings, summarized in Table F, are based on a scale of 0 to 100 where 0 is no effect and 100 is complete control. A dash (-) response means no test result.
# Italian ryegrass = experiment: Test F pre-/postemergence herbicide test; format: in vivo, Lolium multiflorum
# Description: as §1, §2
# [1] = test system: corn (maize) cv. Pioneer 33G26; experiment: Test G safening on corn by naphthalic anhydride seed treatment, preemergence; format: in vivo, Zea mays
# Description: This test evaluated the safening of compounds of the invention on corn (maize; Zea mays L.) cv. ‘Pioneer 33G26’ by seed treatment with naphthalic anhydride (1,8-naphthalic anhydride). All corn seed had been first treated with fludioxonil and metaxyl applied at the manufacturer's recommended rate as per the Pioneer 33G26 label. Some of the corn seed were subsequently also treated with naphthalic anhydride as a 1% by weight seed dressing. The corn seed were planted in pots containing pasteurized Sassafras sandy loam soil, and then treatments were applied preemergence the same day. Treatments were applied by spraying the test compounds formulated in a non-phytotoxic solvent mixture, using a flat fan nozzle and a spray volume of 280 L/ha. The treatments were triply replicated and the results subsequently averaged. The pots were placed on a greenhouse bench using a complete randomized block design except for the first replicate, which was unrandomized. The plants were grown in the greenhouse and watered as needed with a dilute nutrient solution containing 200 ppm of N. Illumination was daylight supplemented by artificial sources to maintaining a photoperiod of 16 hours. The temperature was maintained at 28±2° C. during the day and 23±2° C. at night. The plant response was visually rated 25 days after treatment in comparison to untreated controls using a scale of 0 to 100, with 0 representing no effect and 100 representing complete plant death.
# kochia = experiment: Test E pre-/postemergence herbicide test; format: in vivo, Kochia scoparia
# Description: Seeds of plant species selected from bipinnate beggarticks (Bidens bipinnata L.), hairy beggarticks (Bidens radiata Thuill.), bermudagrass (Cynodon dactylon (L.) Pers.), Surinam grass (Urochloa decumbens (Staph) R. D. Webster, previously named Brachiaria decumbens Stapf), large crabgrass (Digitaria sanguinalis (L.) Scop.), green foxtail (Setaria viridis (L.) P. Beauv.), goosegrass (Eleusine indica (L.) Gaertn.), johnsongrass (Sorghum halepense (L.) Pers.), kochia (Kochia scoparia (L.) Schrad.), pitted morningglory (Ipomoea lacunosa L.), purple nutsedge (Cyperus rotundus L.), common ragweed (Ambrosia elatior L.), mustard (Brassica nigra (L.) W. D. J. Koch), guineagrass (Panicum maximum Jacq.), dallisgrass (Paspalum dilatatum Poir.), barnyardgrass (Echinochloa crus-galli (L). P. Beauv.), southern sandbur (Cenchrus echinatus L.), common sowthistle (Sonchus oleraceous L.), prickly sida (Sida spinosa L.), Italian ryegrass (Lolium multiflorum Lam.), common purslane (Portulaca oleracea L.), broadleaf signalgrass (Brachiaria platyphylla (Griseb.) Nash), common groundsel (Senecio vulgaris L.), common chickweed (Stellaria media (L.) Vill/Cyr.), tropical spiderwort (Commelina benghalensis L.), annual bluegrass (Poa annua L.), downy bromegrass (Bromus tectorum L.), itchgrass (Rottboellia cochinchinensis (L.) L.f.), quackgrass (Elytrigia repens (L.) Nevski), Canada horseweed (Erigeron Canadensis L.), field bindweed (Convolvulus arvensis L.), spotted spurge (Euphorbia maculata L.), common mallow (Malva sylvestris (=s silvestris) L.), and Russian thistle (Salsola kali L. ssp. Ruthenica (Iljin) Soo) were planted and treated preemergence with test chemicals formulated in a non-phytotoxic solvent mixture which included a surfactant.
# as §2, with “these” for “these crop and”, “E,” for “F,”
# wild oat = experiment: Test F pre-/postemergence herbicide test; format: in vivo, Avena fatua
# Description: as §1, §2
# Russian thistle = experiment: Test F pre-/postemergence herbicide test; format: in vivo, Salsola kali; conditions: 125 g ai/ha
# Description: as §1
# as §2, with “Plant response ratings, summarized in Table F, are based on a scale of 0 to 100 where 0 is no effect and 100 is complete control. A dash (-) response means no test result.” left out
# [2] = Preemergence, 62 g ai/ha, scale 0 to 100
# [3] = Preemergence, 250 g ai/ha, scale 0 (no effect) to 100 (complete control)
# [4] = Preemergence, 500 g ai/ha, scale 0 (no effect) to 100 (complete control)
SMILES,"Plant response rating (0-100), Pigweed (pigweed; Postemergence, 125 g ai/ha)","Plant response rating (0-100), Pigweed (pigweed; Preemergence, 125 g ai/ha)","Plant response rating (0-100), Ryegrass, Italian (Italian ryegrass; Postemergence, 125 g ai/ha)","Plant response rating (0-100), Ryegrass, Italian (Italian ryegrass; Preemergence, 125 g ai/ha)","Response of corn, With 1% naphthalic anhydride seed treatment ([1]; 62 g a.i./ha)","Response of corn, Without naphthalic anhydride seed treatment ([1]; 62 g a.i./ha)","Response of corn, With 1% naphthalic anhydride seed treatment ([1]; 125 g a.i./ha)","Response of corn, Without naphthalic anhydride seed treatment ([1]; 125 g a.i./ha)","Response of corn, With 1% naphthalic anhydride seed treatment ([1]; 250 g a.i./ha)","Response of corn, Without naphthalic anhydride seed treatment ([1]; 250 g a.i./ha)","Response of corn, With 1% naphthalic anhydride seed treatment ([1]; 500 g a.i./ha)","Response of corn, Without naphthalic anhydride seed treatment ([1]; 500 g a.i./ha)","Plant response rating, Kochia (kochia; [2])","Plant response rating, Kochia (kochia; [3])","Plant response rating, Kochia (kochia; [4])","Plant response rating (0-100), Oat, Wild (wild oat; Postemergence, 125 g ai/ha)","Plant response rating (0-100), Oat, Wild (wild oat; Preemergence, 125 g ai/ha)",further results
"CCn1nc(C(C)(C)C)cc1C(=O)Nc1cccc(C(N)=O)n1 [Compound 162, 6-[[[3-(1,1-dimethylethyl)-1-ethyl-1H-pyrazol-5-yl]carbonyl]amino]-2-pyridinecarboxamide]",90,100,80,100,0,15,25,30,60,68,63,85,60,95,95,80,100,"Plant response rating (0-100), Pigweed (pigweed; Postemergence, 62 g ai/ha): 70; Plant response rating (0-100), Pigweed (pigweed; Postemergence, 250 g ai/ha): 100; Plant response rating (0-100), Pigweed (pigweed; Postemergence, 500 g ai/ha): 100; Plant response rating (0-100), Pigweed (pigweed; Preemergence, 62 g ai/ha): 90; Plant response rating (0-100), Pigweed (pigweed; Preemergence, 250 g ai/ha): 100; Plant response rating (0-100), Pigweed (pigweed; Preemergence, 500 g ai/ha): 100; Plant response rating (0-100), Ryegrass, Italian (Italian ryegrass; Postemergence, 62 g ai/ha): 70; Plant response rating (0-100), Ryegrass, Italian (Italian ryegrass; Postemergence, 250 g ai/ha): 90; Plant response rating (0-100), Ryegrass, Italian (Italian ryegrass; Postemergence, 500 g ai/ha): 100; Plant response rating (0-100), Ryegrass, Italian (Italian ryegrass; Preemergence, 62 g ai/ha): 100; Plant response rating (0-100), Ryegrass, Italian (Italian ryegrass; Preemergence, 250 g ai/ha): 100; Plant response rating (0-100), Ryegrass, Italian (Italian ryegrass; Preemergence, 500 g ai/ha): 100; Plant response rating, Kochia (kochia; Preemergence, 125 g ai/ha, scale 0 to 100): 70; Plant response rating (0-100), Oat, Wild (wild oat; Postemergence, 62 g ai/ha): 70; Plant response rating (0-100), Oat, Wild (wild oat; Postemergence, 250 g ai/ha): 100; Plant response rating (0-100), Oat, Wild (wild oat; Postemergence, 500 g ai/ha): 100; Plant response rating (0-100), Oat, Wild (wild oat; Preemergence, 62 g ai/ha): 100; Plant response rating (0-100), Oat, Wild (wild oat; Preemergence, 250 g ai/ha): 100; Plant response rating (0-100), Oat, Wild (wild oat; Preemergence, 500 g ai/ha): 100"
CCc1nn(C(C)(C)C)cc1C(=O)Nc1cc(C(=O)N(CC)CC)ccc1F [Compound 223],65,100,45,65,–,–,–,–,–,–,–,–,–,–,–,35,70,"Plant response rating (0-100), Thistle (Russian thistle; Postemergence): 60; Plant response rating (0-100), Thistle (Russian thistle; Preemergence): 60"
"CCNC(=O)c1ccc(F)c(NC(=O)c2cc(C(C)(C)C)nn2CC)c1 [Compound 2, 3-(1,1-dimethylethyl)-1-ethyl-N-[5-[(ethylamino)carbonyl]-2-fluorophenyl]-1H-pyrazole-5-carboxamide]",–,–,–,–,50,65,55,72,68,78,72,85,90,100,100,–,–,"Plant response rating, Kochia (kochia; Preemergence, 125 g ai/ha, scale 0 (no effect) to 100 (complete control)): 100; Plant response rating, Kochia (kochia; postemergence, 125 g ai/ha, scale 0 to 100): 100"
